Laboratory results: publication PMC6386767, “Characterization of recombinant fructose-1,6-bisphosphatase gene mutations: evidence of inhibition/activation of FBPase protein by gene mutation” (Bioscience Reports, 2019)
Positions count from the first letter of the chain named.

Legend:
Format in all cases: binding
pig kidney FBPase M248D = molecular target: T1, pig kidney FBPase M248D (Sus scrofa, UniProt P00636, M249D); test: Differential scanning fluorimetry, M248D mutant; conditions: enzyme M248D
T1 construct: His6 (C); made in house; host or cells: Escherichia coli BL21 (DE3)
T1 sequence (P00636 1-338 M249D): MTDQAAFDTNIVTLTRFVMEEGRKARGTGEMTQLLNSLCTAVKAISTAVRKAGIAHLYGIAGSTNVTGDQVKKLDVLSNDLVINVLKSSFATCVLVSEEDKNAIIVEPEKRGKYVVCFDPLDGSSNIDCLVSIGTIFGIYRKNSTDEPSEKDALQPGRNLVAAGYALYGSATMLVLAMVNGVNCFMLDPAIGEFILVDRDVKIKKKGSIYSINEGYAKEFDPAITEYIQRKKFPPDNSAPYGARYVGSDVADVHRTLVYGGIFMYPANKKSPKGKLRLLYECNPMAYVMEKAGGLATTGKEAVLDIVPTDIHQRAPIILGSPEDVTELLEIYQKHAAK
Experimental: (§1) Differential scanning fluorimetry (DSF) assays were designed and implemented to run on WT and each mutant for the purpose of determining relative stabilities by melting point, and to detect structural changes in the enzymes upon ligand binding. Thermal shift assays were performed with a Light Cycler 96 System Real-Time PCR machine (Roche) using Sypro-Orange dye (Invitrogen) and thermal ramping (0.25°C per min between 20 and 85°C). […] Data were processed using the Boltzmann equation to generate sigmoidal denaturation curves, and average Tm/ΔTm values were calculated as previously described using GraphPad Prism software package.

pig kidney FBPase WT = molecular target: T2, pig kidney FBPase WT (Sus scrofa, UniProt P00636); test: Differential scanning fluorimetry, WT enzyme; conditions: enzyme WT
T2 construct: His6 (C); made in house; host or cells: Escherichia coli BL21 (DE3)
T2 sequence (P00636 1-338): T1 sequence (P00636 1-338 M249D) with D249M
Experimental: as §1

pig kidney FBPase L56A = molecular target: T3, pig kidney FBPase L56A (Sus scrofa, UniProt P00636, L57A); test: Differential scanning fluorimetry, L56A mutant; conditions: enzyme L56A
T3 construct: His6 (C); made in house; host or cells: Escherichia coli BL21 (DE3)
T3 sequence (P00636 1-338 L57A): T1 sequence (P00636 1-338 M249D) with L57A, D249M
Experimental: as §1

pig kidney FBPase L73A = molecular target: T4, pig kidney FBPase L73A (Sus scrofa, UniProt P00636, L74A); test: Differential scanning fluorimetry, L73A mutant; conditions: enzyme L73A
T4 construct: His6 (C); made in house; host or cells: Escherichia coli BL21 (DE3)
T4 sequence (P00636 1-338 L74A): T1 sequence (P00636 1-338 M249D) with L74A, D249M
Experimental: as §1

pig kidney FBPase K112A = molecular target: T5, pig kidney FBPase K112A (Sus scrofa, UniProt P00636, K113A); test: Differential scanning fluorimetry, K112A mutant; conditions: enzyme K112A
T5 construct: His6 (C); made in house; host or cells: Escherichia coli BL21 (DE3)
T5 sequence (P00636 1-338 K113A): T1 sequence (P00636 1-338 M249D) with K113A, D249M
Experimental: as §1

Row | melting point of enzyme with AMP (100 µM) (pig kidney FBPase M248D; AMP 100 µM) | melting point of enzyme with AMP (100 µM) (pig kidney FBPase WT; AMP 100 µM) | melting point of enzyme with AMP (100 µM) (pig kidney FBPase L56A; AMP 100 µM) | melting point of enzyme with AMP (100 µM) (pig kidney FBPase L73A; AMP 100 µM) | reduction in melting temperature, presence of AMP vs absence of ligand (pig kidney FBPase K112A) | melting point of enzyme with AMP (100 µM) (pig kidney FBPase K112A; AMP 100 µM) | melting point of enzyme with Mg^2+ ([…]) (pig kidney FBPase M248D; Mg^2+ […]) | melting point of enzyme with Mg^2+ ([…]) (pig kidney FBPase WT; Mg^2+ […]) | melting point of enzyme with Mg^2+ ([…]) (pig kidney FBPase L56A; Mg^2+ […]) | melting point of enzyme with Mg^2+ ([…]) (pig kidney FBPase L73A; Mg^2+ […]) | melting point of enzyme with Mg^2+ ([…]) (pig kidney FBPase K112A; Mg^2+ […]) | Compound
1 | 59.0 (± 2.50) °C | 59.0 (± 1.75) °C | 57.0 (± 2.75) °C | 56.0 (± 3.00) °C | 5–9 ° | 42.0 (± 2.50) °C | – | – | – | – | – | Nc1ncnc2c1ncn2[C@@H]1O[C@H](COP(=O)(O)O)[C@@H](O)[C@H]1O [AMP]
2 | – | – | – | – | – | – | 65.0 (± 1.75) °C | 50.0 (± 1.25) °C | 56.0 (± 2.50) °C | 56.5 (±2.25) °C | 51.0 (± 2.50) °C | [Mg+2] [Mg^2+, magnesium]
